The experiment concerns M. tuberculosis. The experiment is classed as cell-based, Mycobacterium tuberculosis (laboratory strain H37Rv). The settings on record: for Time to Positivity (Days.Hours) Experiment 2a / Time to Positivity (Days.Hours) Experiment 2b / Time to Positivity (Days.Hours) Experiment 1a / Time to Positivity (Days.Hours) Experiment 1b / Effect on TTP of MTB in words: MGIT; for Time to Positivity (Days.Hours) Experiment 2a / Time to Positivity (Days.Hours) Experiment 2b: diluted inoculum; for Time to Positivity (Days.Hours) Experiment 2a: technical repeat 2a, TB control (no peptide) 15.01; for Time to Positivity (Days.Hours) Experiment 2b: technical repeat 2b, TB control (no peptide) 15.20; for Time to Positivity (Days.Hours) Experiment 1a / Time to Positivity (Days.Hours) Experiment 1b: less diluted inoculum; for Time to Positivity (Days.Hours) Experiment 1a: technical repeat 1a, TB control (no peptide) 7.02; for Time to Positivity (Days.Hours) Experiment 1b: technical repeat 1b, TB control (no peptide) 7.01; for Average % Faster than Control: negative = slower.

Where [1] appears, read: peptide 10 µg/mL, overall average of the averages of experiments 1a/1b and 2a/2b.

Where two headings read alike, the source gives them in different places.

For “61: peptide from the authors' library (ILKWKTKWWKWFR) [Peptide 61]”, under “peptide 10 µg/mL”, the “Time to Positivity (Days.Hours) Experiment 2a” value was 13.11 Days.Hours, the “Time to Positivity (Days.Hours) Experiment 2b” value was 14.21 Days.Hours, the “Time to Positivity (Days.Hours) Experiment 1a” value is given as 6.20 Days.Hours and the “Time to Positivity (Days.Hours) Experiment 1b” value is given as 5.23 Days.Hours. Also, the “Average % Faster than Control” value under setting [1] was 10.4%.

With “62: peptide from the authors' library (ILKWKMFKWKWFR) [Peptide 62]”, where the note is “peptide 10 µg/mL”, the “Effect on TTP of MTB in words” value is on record as “delayed TTP”, the “Time to Positivity (Days.Hours) Experiment 2a” value turned out to be 16.20 Days.Hours, the “Time to Positivity (Days.Hours) Experiment 2b” value came out at 17.16 Days.Hours and the “Time to Positivity (Days.Hours) Experiment 1a” value was 6.07 Days.Hours. The “Time to Positivity (Days.Hours) Experiment 1b” value (peptide 10 µg/mL) turned out to be 7.02 Days.Hours. In addition, the “Average % Faster than Control” value under setting [1] is −3.4%.

For “63: peptide from the authors' library; same sequence as Indolicidin/Cow (ILPWKWPWWPWRR) [Peptide 63]”, under “peptide 10 µg/mL”, the “Effect on TTP of MTB in words” value was “delayed TTP”, the “Time to Positivity (Days.Hours) Experiment 2a” value amounted to 17.01 Days.Hours, the “Time to Positivity (Days.Hours) Experiment 2b” value came out at 17.10 Days.Hours and the “Time to Positivity (Days.Hours) Experiment 1a” value was 6.22 Days.Hours. Besides, the “Time to Positivity (Days.Hours) Experiment 1b” value (peptide 10 µg/mL) is recorded as 6.22 Days.Hours. Further, the “Average % Faster than Control” value under setting [1] is −5.5%.

Consider “64: peptide from the authors' library (RLARIVVIRVAR) [Peptide 64]”, for which, where the note is “peptide 10 µg/mL”, the “Time to Positivity (Days.Hours) Experiment 2a” value came out at 15.21 Days.Hours, the “Time to Positivity (Days.Hours) Experiment 2b” value is 16.13 Days.Hours, the “Time to Positivity (Days.Hours) Experiment 1a” value came out at 6.19 Days.Hours and the “Time to Positivity (Days.Hours) Experiment 1b” value was found to be 6.16 Days.Hours. For the same substance, the “Average % Faster than Control” value under setting [1] is −1.4%.

As to “65: peptide from the authors' library (RGARIVVIRVAR) [Peptide 65]”, for the setting “peptide 10 µg/mL”, the “Time to Positivity (Days.Hours) Experiment 2a” value is on record as 16.11 Days.Hours, the “Time to Positivity (Days.Hours) Experiment 2b” value was found to be 16.01 Days.Hours, the “Time to Positivity (Days.Hours) Experiment 1a” value stood at 6.16 Days.Hours and the “Time to Positivity (Days.Hours) Experiment 1b” value stood at 6.03 Days.Hours. For the same substance, under setting [1], the “Average % Faster than Control” value was 0.8%.

As for “66: peptide from the authors' library (RRARIVVIRVAR) [Peptide 66]”, where the note is “peptide 10 µg/mL”, the “Time to Positivity (Days.Hours) Experiment 2a” value came out at 17.06 Days.Hours, the “Time to Positivity (Days.Hours) Experiment 2b” value was 17.16 Days.Hours, the “Time to Positivity (Days.Hours) Experiment 1a” value is listed as 6.05 Days.Hours and the “Time to Positivity (Days.Hours) Experiment 1b” value was determined as 6.16 Days.Hours. In addition, the “Average % Faster than Control” value under setting [1] was −3.5%.

Take “67: peptide from the authors' library (RLWRIVVIRVAR) [Peptide 67]”: under “peptide 10 µg/mL”, the “Time to Positivity (Days.Hours) Experiment 2a” value turned out to be 16.00 Days.Hours, the “Time to Positivity (Days.Hours) Experiment 2b” value is on record as 16.05 Days.Hours, the “Time to Positivity (Days.Hours) Experiment 1a” value is 6.19 Days.Hours and the “Time to Positivity (Days.Hours) Experiment 1b” value worked out at 6.11 Days.Hours. Besides, under setting [1], the “Average % Faster than Control” value was −0.4%.

In the case of “68: peptide from the authors' library (RLRRIVVIRVAR) [Peptide 68]”, under “peptide 10 µg/mL”, the “Time to Positivity (Days.Hours) Experiment 2a” value is 15.00 Days.Hours, the “Time to Positivity (Days.Hours) Experiment 2b” value is 15.23 Days.Hours, the “Time to Positivity (Days.Hours) Experiment 1a” value worked out at 6.09 Days.Hours and the “Time to Positivity (Days.Hours) Experiment 1b” value came out at 6.17 Days.Hours. Also, the “Average % Faster than Control” value under setting [1] worked out at 2.3%.

On to “71: peptide from the authors' library (RLWRIVVIRVKR) [Peptide 71]”, for which, where the note is “peptide 10 µg/mL”, the “Time to Positivity (Days.Hours) Experiment 2a” value worked out at 14.01 Days.Hours, the “Time to Positivity (Days.Hours) Experiment 2b” value is on record as 14.02 Days.Hours, the “Time to Positivity (Days.Hours) Experiment 1a” value came to 6.04 Days.Hours and the “Time to Positivity (Days.Hours) Experiment 1b” value was found to be 6.06 Days.Hours. Moreover, under setting [1], the “Average % Faster than Control” value worked out at 9.4%.

As for “76: peptide from the authors' library (VRWRIRVAVIRA) [Peptide 76]”, where the note is “peptide 10 µg/mL”, the “Time to Positivity (Days.Hours) Experiment 2a” value worked out at 16.08 Days.Hours, the “Time to Positivity (Days.Hours) Experiment 2b” value was 16.14 Days.Hours, the “Time to Positivity (Days.Hours) Experiment 1a” value came to 6.13 Days.Hours and the “Time to Positivity (Days.Hours) Experiment 1b” value stood at 6.16 Days.Hours. Also, the “Average % Faster than Control” value under setting [1] was −1.4%.

For “77: peptide from the authors' library (VRLRIRVAVIRA) [Peptide 77]”, under “peptide 10 µg/mL”, the “Time to Positivity (Days.Hours) Experiment 2a” value stood at 14.22 Days.Hours, the “Time to Positivity (Days.Hours) Experiment 2b” value is 15.03 Days.Hours, the “Time to Positivity (Days.Hours) Experiment 1a” value is 6.14 Days.Hours and the “Time to Positivity (Days.Hours) Experiment 1b” value turned out to be 6.04 Days.Hours. Also, the “Average % Faster than Control” value under setting [1] turned out to be 5.0%.

As for ALKAALLAILKIVRVI [CM-3/Designed], the “Time to Positivity (Day.Hours) Experiment 1” value was 11.04 Day.Hours and the “Time to Positivity (Day.Hours) Experiment 2” value was 8.03 Day.Hours. In addition, where the note is “crude peptide 10 µg/mL, average of experiments 1 and 2”, the “Average % Faster than Control” value was determined as 8.0%.

The values are drawn from PMC10536189 (Microorganisms, 2023).
